System: γ-globin expression
Experiment: γ-globin mRNA by RNase protection in erythroid cell cultures of normal individuals
Format: cell-based, human
Conditions: for x increase: over ChFCS
Description: Fetal globin production was determined in erythroid progenitor cells cultured in the presence or absence of test compositions. Erythroid cells were purified from blood obtained from a normal individual . […] Erythroid cell cultures were established with the following conditions: IMDM methylcellulose media, erythropoietin (3 U/ml), the human subjects' mononuclear cells, 30% charcoal-absorbed fetal calf serum, and the test compounds at varying micromolar concentrations.
Compounds were tested for their ability to induce expression of fetal globin expression in erythroid cell cultures established from the peripheral blood of normal individuals. Colonies were harvested and assayed for globin mRNA following 14 days of culture. Each compound was tested in duplicate cultures from 2-4 individual human subjects. Globin expression was quantitated by RNase protection assay for % gamma globin as a fraction of total non-alpha globin (% gamma/gamma+beta globin mRNA).

Q: What does the source list for `CCCC(=O)NO` [butyryl hydroxamate]?
A: x increase (6 μM, group 1 (99-4, 99-5)): 1.0 x; γ/γ + β (6 μM, group 1, subject 99-4): 2.29%; γ/γ + β (6 μM, group 1, subject 99-5): 3.40%; γ/γ + β mean (6 μM, group 1, subjects 99-4, 99-5): 2.85%; x increase (10 μM, group 1 (99-4, 99-5)): 1.3 x; γ/γ + β (10 μM, group 1, subject 99-4): 3.44%; γ/γ + β (10 μM, group 1, subject 99-5): 4.06%; γ/γ + β mean (10 μM, group 1, subjects 99-4, 99-5): 3.75%; x increase (20 μM, group 1 (99-4, 99-5)): 1.9 x; γ/γ + β (20 μM, group 1, subject 99-4): 4.43%; γ/γ + β (20 μM, group 1, subject 99-5): 6.06%; γ/γ + β mean (20 μM, group 1, subjects 99-4, 99-5): 6.25%; x increase (20 μM, group 2 (99-6, 99-7)): 1.0 x; γ/γ + β (20 μM, group 2, subject 99-6): 8.65%; γ/γ + β (20 μM, group 2, subject 99-7): 12.49%; γ/γ + β mean (20 μM, group 2, subjects 99-6, 99-7): 10.57%; x increase (30 μM, group 1 (99-4, 99-5)): 1.7 x; γ/γ + β (30 μM, group 1, subject 99-4): 4.12%; γ/γ + β (30 μM, group 1, subject 99-5): 5.35%; γ/γ + β mean (30 μM, group 1, subjects 99-4, 99-5): 4.74%; x increase (40 μM, group 1 (99-4, 99-5)): 2.8 x; γ/γ + β (40 μM, group 1, subject 99-5): 7.72%; γ/γ + β mean (40 μM, group 1, subject 99-5 only): 7.72%; x increase (40 μM, group 2 (99-6, 99-7)): 1.5 x; γ/γ + β (40 μM, group 2, subject 99-6): 14.81%; γ/γ + β (40 μM, group 2, subject 99-7): 17.39%; γ/γ + β mean (40 μM, group 2, subjects 99-6, 99-7): 16.10%; x increase (60 μM, group 2 (99-6, 99-7)): 4.1 x; γ/γ + β (60 μM, group 2, subject 99-6): 37.65%; γ/γ + β (60 μM, group 2, subject 99-7): 51.04%; γ/γ + β mean (60 μM, group 2, subjects 99-6, 99-7): 44.35%; x increase (80 μM, group 2 (99-6, 99-7)): 4.7 x; γ/γ + β (80 μM, group 2, subject 99-6): 44.98%; γ/γ + β (80 μM, group 2, subject 99-7): 55.39%; γ/γ + β mean (80 μM, group 2, subjects 99-6, 99-7): 50.19%; x increase (100 μM, group 2 (99-6, 99-7)): 5.3 x; γ/γ + β (100 μM, group 2, subject 99-6): 54.06%; γ/γ + β (100 μM, group 2, subject 99-7): 60.90%; γ/γ + β mean (100 μM, group 2, subjects 99-6, 99-7): 57.48%

Q: How did the x increase (1 μM, 990709) turn out when `CCC(=O)NO` [propionyl hydroxamate] was run?
A: 1.1 x

Q: What about the “γ/γ + β” value (1 μM, 990709, subject 99-4) of the same molecule?
A: 1.39%

Q: And the “γ/γ + β” value (1 μM, 990709, subject 99-5)?
A: 2.39%

Q: What about the “γ/γ + β mean” value (1 μM, 990709, subjects 99-4, 99-5) of the same molecule?
A: 1.89%

Q: What about the x increase (8 μM, 990709) of the same molecule?
A: 0.9 x

Q: What about the “γ/γ + β” value (8 μM, 990709, subject 99-4) of the same molecule?
A: 1.19%

Q: What about the “γ/γ + β” value (8 μM, 990709, subject 99-5) of the same molecule?
A: 1.73%

Q: What about the “γ/γ + β mean” value (8 μM, 990709, subjects 99-4, 99-5) of the same molecule?
A: 1.46%

Q: What about the x increase (10 μM, 990709) of the same molecule?
A: 1.5 x

Q: And the “γ/γ + β” value (10 μM, 990709, subject 99-4)?
A: 1.86%

Q: And the “γ/γ + β” value (10 μM, 990709, subject 99-5)?
A: 3.28%

Q: And the “γ/γ + β mean” value (10 μM, 990709, subjects 99-4, 99-5)?
A: 2.57%

Q: And the x increase (25 μM, 991208)?
A: 1.5 x

Q: And the “γ/γ + β” value (25 μM, 991208, subject 00-1)?
A: 12.17%

Q: What about the “γ/γ + β” value (25 μM, 991208, subject 00-3) of the same molecule?
A: 12.38%

Q: And the “γ/γ + β mean” value (25 μM, 991208, subjects 00-1, 00-3)?
A: 12.27%

Q: What about the x increase (50 μM, 0601-0) of the same molecule?
A: 2.5 x

Q: And the “γ/γ + β” value (50 μM, 0601-0, subject 00-3)?
A: 9.57%

Q: And the “γ/γ + β mean” value (50 μM, 0601-0, subject 00-3 only)?
A: 9.57%

Q: What about the x increase (50 μM, 990709) of the same molecule?
A: 3.0 x

Q: And the “γ/γ + β” value (50 μM, 990709, subject 99-4)?
A: 3.80%

Q: What about the “γ/γ + β” value (50 μM, 990709, subject 99-5) of the same molecule?
A: 6.40%

Q: And the “γ/γ + β mean” value (50 μM, 990709, subjects 99-4, 99-5)?
A: 5.10%

Q: And the x increase (50 μM, 991208)?
A: 2.5 x

Q: What about the “γ/γ + β” value (50 μM, 991208, subject 00-1) of the same molecule?
A: 20.79%

Q: And the “γ/γ + β” value (50 μM, 991208, subject 00-3)?
A: 21.30%

Q: And the “γ/γ + β mean” value (50 μM, 991208, subjects 00-1, 00-3)?
A: 21.05%

Q: And the x increase (100 μM, 0601-0)?
A: 4.8 x

Q: What about the “γ/γ + β” value (100 μM, 0601-0, subject 00-3) of the same molecule?
A: 16.66%

Q: What about the “γ/γ + β mean” value (100 μM, 0601-0, subject 00-3 only) of the same molecule?
A: 16.66%

Q: What about the x increase (100 μM, 990709) of the same molecule?
A: 4.6 x

Q: And the “γ/γ + β” value (100 μM, 990709, subject 99-4)?
A: 7.78%

Q: What about the “γ/γ + β” value (100 μM, 990709, subject 99-5) of the same molecule?
A: 8.80%

Q: And the “γ/γ + β mean” value (100 μM, 990709, subjects 99-4, 99-5)?
A: 7.72%

Q: What about the x increase (100 μM, 991208) of the same molecule?
A: 4.3 x

Q: And the “γ/γ + β” value (100 μM, 991208, subject 00-1)?
A: 32.74%

Q: And the “γ/γ + β” value (100 μM, 991208, subject 00-3)?
A: 38.33%

Q: And the “γ/γ + β mean” value (100 μM, 991208, subjects 00-1, 00-3)?
A: 35.54%

Q: And the x increase (125 μM, 991208)?
A: 4.7 x

Q: And the “γ/γ + β” value (125 μM, 991208, subject 00-1)?
A: 37.83%

Q: What about the “γ/γ + β” value (125 μM, 991208, subject 00-3) of the same molecule?
A: 39.14%

Q: And the “γ/γ + β mean” value (125 μM, 991208, subjects 00-1, 00-3)?
A: 38.49%

Q: What about the x increase (150 μM, 0601-0) of the same molecule?
A: 6.3 x

Q: What about the “γ/γ + β” value (150 μM, 0601-0, subject 00-3) of the same molecule?
A: 24.40%

Q: And the “γ/γ + β mean” value (150 μM, 0601-0, subject 00-3 only)?
A: 24.40%

Q: What about the x increase (150 μM, 991208) of the same molecule?
A: 6.7 x

Q: What about the “γ/γ + β” value (150 μM, 991208, subject 00-1) of the same molecule?
A: 59.60%

Q: What about the “γ/γ + β” value (150 μM, 991208, subject 00-3) of the same molecule?
A: 51.56%

Q: And the “γ/γ + β mean” value (150 μM, 991208, subjects 00-1, 00-3)?
A: 55.58%

Q: And the “fetal (gamma) globin expression, fold over control cultures” value (5 to 150 micromolar)?
A: 1.5-6.7 fold

— US6403647B1, “Pulsed administration of compositions for the treatment of blood disorders” (priority 1996, dated 2002)
